A short description of this data set: Retention in stomach, 123I label, single-photon emission computed tomography. The format is in vivo. To be noted: mice, 24 hours after feeding, 123I labeled, SPECT (FIG. 3). The text has this:
Then, in order to examine the retention time of the present drug structure in stomach, sample B of embodiment 1 was labeled with radioactive Iodine 123 (^123I) and fed to experimental mice. Single-photon emission computed tomography was respectively conducted at 1st, 4th, and 24th hour after feeding to observe the location of the present drug structure inside the mice's bodies.

On to `CC1(C)S[C@@H]2[C@H](NC(=O)[C@H](N)c3ccc(O)cc3)C(=O)N2[C@H]1C(=O)O` [amoxicillin], for which the “presence in stomach after feeding” value is “had no longer existed in the stomach after 24 hours”.

The values are drawn from patent US20140356433A1, “Pharmaceutical Carrier and Drug Structure Using the Same” (priority 2013, published 2014).
